Tests used:
[1] = target: T1, PKK in kaolin activated human platelet poor plasma (Homo sapiens, UniProt P03952); test: Inhibition of PKK in kaolin activated human PPP; format: biochemical; settings: 25-750 μg/mL kaolin, global fit, text b200 calls the values IC90;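 further: readout is the rate of fluorogenic substrate cleavage in rfu per min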
T1 construct: Platelet poor plasma (PPP) obtained from human wholeblood; from tissue
Procedure: Platelet poor plasma (PPP) obtained from human wholeblood, anticoagulated with Na-Citrate, is incubated with various concentrations of the test compound together with either 25, 75, 250, or 750 μg/mL kaolin in assay buffer for 20 min at 37° C. such that for each kaolin dose used a concentration response is obtained for the test compound.

[2] = target: T2, Human PKK (Homo sapiens, UniProt P03952); test: Inhibition of PKK using an endpoint assay (human PKK); format: biochemical; settings: fluorogenic substrate H-Pro-Phe-Arg-AMC, 1 h room temperature, method names human or rat PKK, table does not say which
T2 construct: purchased Enzyme Research Laboratories
Procedure, shortened: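 Human PKK inhibition measured in 100 mM Tris, 150 mM NaCl, pH 7.8, 0.1% BSA, 0.05% Tween20, 1% DMSO. Endpoint format: reaction stopped with PPACK II at 1 μM final, fluorescence read at 355 nm excitation/460 nm emission.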

T2 sequence (P03952 20-390 limits assumed): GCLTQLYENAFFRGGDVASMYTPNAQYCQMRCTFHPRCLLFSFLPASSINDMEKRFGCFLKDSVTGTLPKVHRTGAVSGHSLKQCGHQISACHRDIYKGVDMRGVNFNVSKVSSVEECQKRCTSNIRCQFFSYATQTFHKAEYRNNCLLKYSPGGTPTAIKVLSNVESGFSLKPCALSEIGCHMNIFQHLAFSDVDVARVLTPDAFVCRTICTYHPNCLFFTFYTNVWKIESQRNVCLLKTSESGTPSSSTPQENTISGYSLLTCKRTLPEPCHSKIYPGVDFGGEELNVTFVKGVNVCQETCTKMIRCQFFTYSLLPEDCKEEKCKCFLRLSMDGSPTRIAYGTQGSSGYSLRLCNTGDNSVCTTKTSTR
T2 sequence (P03952 391-638 limits assumed): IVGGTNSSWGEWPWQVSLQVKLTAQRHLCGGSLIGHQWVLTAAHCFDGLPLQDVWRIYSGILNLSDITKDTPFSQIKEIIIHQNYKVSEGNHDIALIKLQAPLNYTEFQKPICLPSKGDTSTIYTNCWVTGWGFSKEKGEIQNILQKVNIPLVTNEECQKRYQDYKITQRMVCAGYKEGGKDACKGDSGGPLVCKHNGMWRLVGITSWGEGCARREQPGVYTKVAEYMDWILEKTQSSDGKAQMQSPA
T1 sequence (P03952 391-638 limits assumed): as above
T1 sequence (P03952 20-390 limits assumed): as the sequence (P03952 20-390 limits assumed) above

Row | SMILES | IC50 [1] [nM] | IC50 [2] [nM]
1 | Cn1cnc2c1CC[C@H]2NC(=O)c1ccc(Cc2ccc(N3CC4C(C3)C4(F)F)nc2CO)s1 (stereo partly drawn) [Example 185, 5-[(6-{6,6-Difluoro-3-azabicyclo[3.1.0]hexan-3-yl}-2-(hydroxymethyl)pyridin-3-yl)methyl]-N-[(4R)-1-methyl-1H,4H,5H,6H-cyclopenta-[d]imidazol-4-yl]thiophene-2-carboxamide] | 2270 | 10.9
2 | Cc1nc(N2CC3C(C2)C3(F)F)ccc1Cc1ccc(C(=O)N[C@@H]2CCc3c2ncn3C)s1 (stereo partly drawn) [Example 187, 5-[(6-{6,6-Difluoro-3-azabicyclo[3.1.0]hexan-3-yl}-2-methylpyridin-3-yl)methyl]-N-[(4R)-1-methyl-1H,4H,5H,6H-cyclopenta[d]imidazol-4-yl]thiophene-2-carboxamide] | 2450 | 12.2
3 | Cc1nc(N2CC3C(C2)C3(F)F)ccc1Cc1ncc(C(=O)N[C@@H]2CCc3c2ncn3C)s1 (stereo partly drawn) [Example 188, 2-[(6-{6,6-Difluoro-3-azabicyclo[3.1.0]hexan-3-yl}-2-methylpyridin-3-yl)methyl]-N-[(4R)-1-methyl-1H,4H,5H,6H-cyclopenta[d]imidazol-4-yl]-1,3-thiazole-5-carboxamide] | 1500 | 19.8
4 | Cc1cc(N2CC3C(C2)C3(F)F)ccc1Cn1cc(C(=O)N[C@@H]2CCc3c2ncn3C)cn1 (stereo partly drawn) [Example 199, 1-[(4-{6,6-difluoro-3-azabicyclo[3.1.0]hexan-3-yl}-2-methylphenyl)methyl]-N-[(4R)-1-methyl-1H,4H,5H,6H-cyclopenta[d]imidazol-4-yl]-1H-pyrazole-4-carboxamide] | 808 | 3.1
5 | Cn1cnc2c1CC[C@H]2NC(=O)c1cn(Cc2ccc(N3CC4CC4C3)c(C#N)c2F)cn1 (stereo partly drawn) [Example 201, 1-[(4-{3-azabicyclo[3.1.0]hexan-3-yl}-3-cyano-2-fluorophenyl)methyl]-N-[(4R)-1-methyl-1H,4H,5H,6H-cyclopenta[d]imidazol-4-yl]-1H-imidazole-4-carboxamide] | 130 | 0.6
6 | Cn1cnc2c1CC[C@H]2NC(=O)c1cnn(Cc2ccc(N3CC4CC4C3)c(C#N)c2Cl)c1 (stereo partly drawn) [Example 202, 1-[(4-{3-azabicyclo[3.1.0]hexan-3-yl}-2-chloro-3-cyanophenyl)methyl]-N-[(4R)-1-methyl-1H,4H,5H,6H-cyclopenta[d]imidazol-4-yl]-1H-pyrazole-4-carboxamide] | 157 | 0.5
7 | Cn1cnc2c1CC[C@H]2NC(=O)c1cn(Cc2ccc(N3CC4CC4C3)c(C#N)c2Cl)cn1 (stereo partly drawn) [Example 203, 1-[(4-{3-azabicyclo[3.1.0]hexan-3-yl}-2-chloro-3-cyanophenyl)methyl]-N-[(4R)-1-methyl-1H,4H,5H,6H-cyclopenta[d]imidazol-4-yl]-1H-imidazole-4-carboxamide] | 202 | 0.7
8 | Cn1cnc2c1CC[C@H]2NC(=O)c1cn(Cc2ccc(N3CC4CC4C3)cc2C#N)cn1 (stereo partly drawn) [Example 206, 1-[(4-{3-azabicyclo[3.1.0]hexan-3-yl}-2-cyanophenyl)methyl]-N-[(4R)-1-methyl-1H,4H,5H,6H-cyclopenta[d]imidazol-4-yl]-1H-imidazole-4-carboxamide] | 138 | 0.4
9 | Cn1cnc2c1CC[C@H]2NC(=O)c1cnn(Cc2ccc(N3CC4C(C3)C4(F)F)cc2C#N)c1 (stereo partly drawn) [Example 208, 1-[(2-cyano-4-{6,6-difluoro-3-azabicyclo-[3.1.0]hexan-3-yl}phenyl)methyl]-N-[(4R)-1-methyl-1H,4H,5H,6H-cyclopenta[d]imidazol-4-yl]-1H-pyrazole-4-carboxamide] | 80 | 0.6
10 | Cn1cnc2c1CC[C@H]2NC(=O)c1cnn(Cc2ccc(N3CC4C(C3)C4(F)F)cc2Br)c1 (stereo partly drawn) [Example 209, 1-[(2-bromo-4-{6,6-difluoro-3-azabicyclo-[3.1.0]hexan-3-yl}phenyl)methyl]-N-[(4R)-1-methyl-1H,4H,5H,6H-cyclopenta[d]imidazol-4-yl]-1H-pyrazole-4-carboxamide] | 432 | 1.5
11 | Cn1cnc2c1CC[C@H]2NC(=O)c1cn(Cc2ccc(N3CC4C(C3)C4(F)F)cc2C#N)cn1 (stereo partly drawn) [Example 210, 1-[(2-cyano-4-{6,6-difluoro-3-azabicyclo-[3.1.0]hexan-3-yl}phenyl)methyl]-N-[(4R)-1-methyl-1H,4H,5H,6H-cyclopenta[d]imidazol-4-yl]-1H-imidazole-4-carboxamide] | 128 | 0.4
12 | Cn1cnc2c1CC[C@H]2NC(=O)c1cn(Cc2ccc(N3CC4C(C3)C4(F)F)cc2Cl)cn1 (stereo partly drawn) [Example 211, 1-[(2-chloro-4-{6,6-difluoro-3-azabicyclo-[3.1.0]hexan-3-yl}phenyl)methyl]-N-[(4R)-1-methyl-1H,4H,5H,6H-cyclopenta[d]imidazol-4-yl]-1H-imidazole-4-carboxamide] | 590 | 0.8
13 | Cn1cnc2c1CC[C@H]2NC(=O)c1cn(Cc2ccc(N3CC4C(C3)C4(F)F)cc2F)cn1 (stereo partly drawn) [Example 212, 1-[(4-{6,6-difluoro-3-azabicyclo[3.1.0]hexan-3-yl}-2-fluorophenyl)methyl]-N-[(4R)-1-methyl-1H,4H,5H,6H-cyclopenta[d]imidazol-4-yl]-1H-imidazole-4-carboxamide] | 1890 | 2.1
14 | Cn1cnc2c1CC[C@H]2NC(=O)c1cnn(Cc2ccc(N3CC4C(C3)C4(F)F)cc2F)c1 (stereo partly drawn) [Example 213, 1-[(4-{6,6-difluoro-3-azabicyclo[3.1.0]hexan-3-yl}-2-fluorophenyl)methyl]-N-[(4R)-1-methyl-1H,4H,5H,6H-cyclopenta[d]imidazol-4-yl]-1H-pyrazole-4-carboxamide] | 621 | 2.3
15 | CC(O)c1nc(N2CC3C(C2)C3(F)F)ccc1Cn1cc(C(=O)N[C@@H]2CCc3c2ncn3C)nn1 (stereo partly drawn) [Example 215, 1-[(6-{6,6-Difluoro-3-azabicyclo[3.1.0]hexan-3-yl}-2-(1-hydroxyethyl)pyridin-3-yl)methyl]-N-[(4R)-1-methyl-1H,4H,5H,6H-cyclopenta[d]imidazol-4-yl]-1H-1,2,3-triazole-4-carboxamide] | 194 | 0.7

Second part, the molecule after the results:

Row | IC50 [1] [nM] | IC50 [2] [nM] | SMILES
16 | 236 | 10.9 | CCc1nc(N2CC3C(C2)C3(F)F)ccc1Cc1ccc(C(=O)N[C@@H]2CCc3c2ncn3C)o1 (stereo partly drawn) [Example 186, 5-[(6-{6,6-difluoro-3-azabicyclo[3.1.0]hexan-3-yl}-2-ethylpyridin-3-yl)methyl]-N-[(4R)-1-methyl-1H,4H,5H,6H-cyclopenta[d]imidazol-4-yl]furan-2-carboxamide]
17 | 818 | 1.5 | Cn1cnc2c1CC[C@H]2NC(=O)c1cn(Cc2ccc(N3CC4CC4C3)cc2Br)cn1 (stereo partly drawn) [Example 204, 1-[(4-{3-azabicyclo[3.1.0]hexan-3-yl}-2-bromophenyl)methyl]-N-[(4R)-1-methyl-1H,4H,5H,6H-cyclopenta[d]imidazol-4-yl]-1H-imidazole-4-carboxamide]
18 | 745 | 3.2 | Cn1cnc2c1CC[C@H]2NC(=O)c1cn(Cc2ccc(N3CC4CC4C3)cc2CO)cn1 (stereo partly drawn) [Example 207, 1-[(4-{3-azabicyclo[3.1.0]hexan-3-yl}-2-(hydroxymethyl)phenyl)methyl]-N-[(4R)-1-methyl-1H,4H,5H,6H-cyclopenta[d]imidazol-4-yl]-1H-imidazole-4-carboxamide]
19 | 1040 | 20.3 | Cn1cnc2c1CC[C@H]2NC(=O)c1cn(Cc2cnc(N3CC4CC4C3)nc2CO)cn1 (stereo partly drawn) [Example 214, 1-[(2-{3-Azabicyclo[3.1.0]hexan-3-yl}-4-(hydroxymethyl)pyrimidin-5-yl)methyl]-N-[(4R)-1-methyl-1H,4H,5H,6H-cyclopenta[d]imidazol-4-yl]-1H-imidazole-4-carboxamide]
20 | > 10000 | 1.2 | Cc1nc(N2CC3CC3C2)ccc1Cn1cc(C(=O)N[C@@H]2CCc3c2ncn3C)c(CCO)n1 (stereo partly drawn) [Example 216, 1-[(6-{3-Azabicyclo[3.1.0]hexan-3-yl}-2-methylpyridin-3-yl)methyl]-3-(2-hydroxyethyl)-N-[(4R)-1-methyl-1H,4H,5H,6H-cyclopenta[d]imidazol-4-yl]-1H-pyrazole-4-carboxamide]
21 | 776 | 3.6 | COCc1nc(N2CC3CC3C2)ccc1Cc1cc(C(=O)N[C@@H]2CCc3c2ncn3C)[nH]n1 (stereo partly drawn) [Example 219, 3-[(6-{3-Azabicyclo[3.1.0]hexan-3-yl}-2-(methoxymethyl)pyridin-3-yl)methyl]-N-[(4R)-1-methyl-1H,4H,5H,6H-cyclopenta[d]imidazol-4-yl]-1H-pyrazole-5-carboxamide]
22 | 525 | 1.9 | Cn1cnc2c1CC[C@H]2NC(=O)c1cc(Cc2ccc(N3CC4CC4C3)nc2CO)n[nH]1 (stereo partly drawn) [Example 220, 3-[(6-{3-Azabicyclo[3.1.0]hexan-3-yl}-2-(hydroxymethyl)pyridin-3-yl)methyl]-N-[(4R)-1-methyl-1H,4H,5H,6H-cyclopenta[d]imidazol-4-yl]-1H-pyrazole-5-carboxamide]

Reference: patent publication US12479827B2, “Heteroaromatic carboxamide derivatives as plasma kallikrein inhibitors” (Boehringer Ingelheim International GmbH, priority 2020, dated 2025)
